# Results: patent US12660819B2, “Herbicidal derivatives” (SYNGENTA CROP PROTECTION AG, priority 2020, dated 2026)
# What was measured:
# Format in all cases: in vivo
# [1] = system: Abutilon theophrasti (ABUTH); assay: Post-emergence Test (glasshouse, percentage damage to the plant); conditions: post-emergence spray, 1000 g/ha unless otherwise stated, evaluated after 13 days
# Outline: (§1)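 Seeds are sown in standard soil under controlled glasshouse conditions. The pots are then sprayed at 1000 g/ha, unless otherwise stated, with compound in acetone/water (50:50) containing 0.5% Tween 20. After 13 days further growth, percentage plant damage is scored from 1 (0-20%) to 5 (81-100%).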
# [2] = system: Amaranthus retoflexus (AMARE); assay: as above; conditions: post-emergence spray, 1000 g/ha unless otherwise stated, evaluated after 13 days
# Outline: as §1
# [3] = system: Echinochloa crus-galli (ECHCG); assay: as above; conditions: post-emergence spray, 1000 g/ha unless otherwise stated, evaluated after 13 days
# Outline: as §1
# [4] = system: Ipomoea hederacea (IPOHE); assay: as above; conditions: post-emergence spray, 1000 g/ha unless otherwise stated, evaluated after 13 days
# Outline: as §1
# Setaria faberi (SETFA) [5] = assay: as above; conditions: post-emergence spray, 1000 g/ha unless otherwise stated, evaluated after 13 days
# Outline: as §1
# Zea mays (ZEAMX) [6] = assay: as above; conditions: post-emergence spray, 1000 g/ha unless otherwise stated, evaluated after 13 days
# Outline: as §1
# [7] = system: Amaranthus retoflexus (AMARE); assay: Pre-emergence Test (glasshouse, percentage damage to the plant); conditions: 1000 g/ha unless otherwise stated, five-point scale
# Setaria faberi (SETFA) [8] = assay: as above; conditions: 1000 g/ha unless otherwise stated, five-point scale
# [9] = system: Echinochloa crus-galli (ECHCG); assay: as above; conditions: 1000 g/ha unless otherwise stated, five-point scale
# [10] = system: Ipomoea hederacea (IPOHE); assay: as above; conditions: 1000 g/ha unless otherwise stated, five-point scale
# [11] = system: Abutilon theophrasti (ABUTH); assay: as above; conditions: 1000 g/ha unless otherwise stated, five-point scale
# Zea mays (ZEAMX) [12] = assay: as above; conditions: 1000 g/ha unless otherwise stated, five-point scale
Compound,"Post-emergence Test ABUTH, percentage damage to the plant (five-point scale) [1]","Post-emergence Test AMARE, percentage damage to the plant (five-point scale) [2]","Post-emergence Test ECHCG, percentage damage to the plant (five-point scale) [3]","Post-emergence Test IPOHE, percentage damage to the plant (five-point scale) [4]","Post-emergence Test SETFA, percentage damage to the plant (five-point scale) (Setaria faberi (SETFA) [5])","Post-emergence Test ZEAMX, percentage damage to the plant (five-point scale) (Zea mays (ZEAMX) [6])","percentage damage to the plant, AMARE [7]","percentage damage to the plant, SETFA (Setaria faberi (SETFA) [8])","percentage damage to the plant, ECHCG [9]","percentage damage to the plant, IPOHE [10]","percentage damage to the plant, ABUTH [11]","percentage damage to the plant, ZEAMX (Zea mays (ZEAMX) [12])"
"CCn1c(C)c(-c2ccc(F)c(OCC(F)(F)F)c2)c(=O)c(C(=O)O)c1-c1ccc(Cl)c(Cl)c1 [Compound 105, 2-(3,4-dichlorophenyl)-1-ethyl-5-[4-fluoro-3-(2,2,2-trifluoroethoxy)phenyl]-6-methyl-4-oxo-pyridine-3-carboxylic acid]",2 (2=21-40%),2 (2=21-40%),3 (3=41-60%),1 (1=0-20%),4 (4=61-80%),2 (2=21-40%),3 (3=41-60%),4 (4=61-80%),2 (2=21-40%),1 (1=0-20%),1 (1=0-20%),1 (1=0-20%)
"CCn1c(C)c(-c2ccnnc2)c(=O)c(C(=O)O)c1-c1ccc(Cl)cc1 [Compound 180, 2-(4-chlorophenyl)-1-ethyl-6-methyl-4-oxo-5-pyridazin-4-yl-pyridine-3-carboxylic acid]",0,0,0,2 (2=21-40%),0,0,0,0,0,0,0,0
"CCn1c(C)c(-c2ccc(C(F)F)cc2)c(=O)c(C(=O)O)c1-c1ccc(Cl)c(Cl)c1 [Compound 76, 2-(3,4-dichlorophenyl)-5-[4-(difluoromethyl)phenyl]-1-ethyl-6-methyl-4-oxo-pyridine-3-carboxylic acid]",3 (3=41-60%),1 (1=0-20%),2 (2=21-40%),2 (2=21-40%),3 (3=41-60%),1 (1=0-20%),1 (1=0-20%),3 (3=41-60%),1 (1=0-20%),2 (2=21-40%),2 (2=21-40%),1 (1=0-20%)
"CCn1c(C)c(-c2ccc(C(=O)N(C)C)cc2)c(=O)c(C(=O)O)c1-c1ccc(Cl)c(Cl)c1 [Compound 109, 2-(3,4-dichlorophenyl)-5-[4-(dimethylcarbamoyl)phenyl]-1-ethyl-6-methyl-4-oxo-pyridine-3-carboxylic acid]",3 (3=41-60%),1 (1=0-20%),2 (2=21-40%),4 (4=61-80%),3 (3=41-60%),1 (1=0-20%),1 (1=0-20%),4 (4=61-80%),1 (1=0-20%),1 (1=0-20%),1 (1=0-20%),1 (1=0-20%)
"CCOc1cccc(-c2c(C)n(CC)c(-c3ccc(Cl)c(Cl)c3)c(C(=O)O)c2=O)c1 [Compound 98, 2-(3,4-dichlorophenyl)-5-(3-ethoxyphenyl)-1-ethyl-6-methyl-4-oxo-pyridine-3-carboxylic acid]",2 (2=21-40%),1 (1=0-20%),1 (1=0-20%),2 (2=21-40%),1 (1=0-20%),1 (1=0-20%),2 (2=21-40%),3 (3=41-60%),1 (1=0-20%),1 (1=0-20%),1 (1=0-20%),1 (1=0-20%)
